The target of one data set is T1, CYP1A2 (Homo sapiens, UniProt P05177).
T1 construct: 0.1 mg/mL protein human liver microsomes (BD Gentest); tissue BD Gentest; host or cells: human liver microsomes
T1 sequence (P05177 1-516): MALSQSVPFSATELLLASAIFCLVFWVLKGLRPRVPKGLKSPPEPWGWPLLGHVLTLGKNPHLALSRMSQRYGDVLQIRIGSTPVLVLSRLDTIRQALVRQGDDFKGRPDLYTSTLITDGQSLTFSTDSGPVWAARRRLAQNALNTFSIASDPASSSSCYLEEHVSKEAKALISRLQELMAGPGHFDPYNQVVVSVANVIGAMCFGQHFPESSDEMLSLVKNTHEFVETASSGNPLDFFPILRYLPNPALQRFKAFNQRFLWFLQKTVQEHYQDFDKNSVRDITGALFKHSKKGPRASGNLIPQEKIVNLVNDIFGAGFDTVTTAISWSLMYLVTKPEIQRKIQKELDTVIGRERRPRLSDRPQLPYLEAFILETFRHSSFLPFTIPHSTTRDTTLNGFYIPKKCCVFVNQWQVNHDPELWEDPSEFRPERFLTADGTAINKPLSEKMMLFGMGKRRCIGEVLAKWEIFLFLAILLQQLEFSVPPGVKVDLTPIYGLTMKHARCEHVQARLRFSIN
Kind of data set: Cocktail CYP assay, phenacetin O-deethylation. The data set is classed as in vitro ADME. The note with it: human liver microsomes, 10 μM phenacetin; test concentrations up to 10 μM. Here is the method:
(§1) Determination of IC50 in a Cocktail Assay for CYPs 1A2, 2C9, 2C19, 2D6 and 3A4
(§2) This assay was performed in a standard 96-well plate design. IC50 values were calculated from the percent inhibition observed for each test compound at 6 concentrations (for example, 0.0032, 0.016, 0.08, 0.4, 2 and 10 μM). The incubation substrate mix contains 10 μM phenacetin (1A2), 5 μM diclofenac (2C9), 30 μM mephenyloin (2C19), 5 μM dextromethorphan (2D6) and 2 μM midazolam (3A4), 0.1 mg/mL protein human liver microsomes (BD Gentest), 1 mM NAPDH, 3.3 mM MgCl2 and 100 mM potassium phosphate buffer (pH 7.4). The production of the metabolite of each probe substrate was determined after incubation for 10 min at 37° C. Quantitation of the metabolite peak area ratio against an internal standard (tolbutamide) was determined by LC/MS/MS analysis following acetonitrile treatment of the incubations.
(§3) Samples were analyzed in the MRM mode with a SCIEX API-4000 mass spectrometer (Applied Biosystems, Foster City, Calif.), with a Shimadzu LC-20 AD pump (Shimadzu corporation, Kyoto, JP) and a CTC PAL autosampler (Agilent Technologies, Switzerland). A Phenomenex, Luna, […], 100 A, 2.00×30 mm HPLC column was used for the separation. The mobile phases were: (A) 0.1% formic acid in water and (B) 0.1% formic acid in acetonitrile. The binary gradient was as follows.
(§4) The peak area ratio of the analyte to the internal standard was used to quantify the metabolite. The values of peak area ratios in the presence of test compound were compared to those of maximum or minimum controls and were expressed as % inhibition by interpolating between the maximum and minimum peak area ratios. Incubations with no inhibitor were defined as the maxima.
(§5) The following equation was used to calculate the % inhibition:
(§6) [1−[(X−Low control)/(High control−Low control)]]*100
(§7) For the IC50 calculation, SigmaPlot was used to plot the mean % inhibition versus the test compound concentrations and for non-linear regression analysis of the data. Depending on the range of data points defining the inhibition curve, the data may have been fit to the 4-parameter logistic equation.

The target of another data set is T2, CYP2C9 (Homo sapiens, UniProt P11712).
T2 construct: 0.1 mg/mL protein human liver microsomes (BD Gentest); tissue BD Gentest; host or cells: human liver microsomes
T2 sequence (P11712 whole entry): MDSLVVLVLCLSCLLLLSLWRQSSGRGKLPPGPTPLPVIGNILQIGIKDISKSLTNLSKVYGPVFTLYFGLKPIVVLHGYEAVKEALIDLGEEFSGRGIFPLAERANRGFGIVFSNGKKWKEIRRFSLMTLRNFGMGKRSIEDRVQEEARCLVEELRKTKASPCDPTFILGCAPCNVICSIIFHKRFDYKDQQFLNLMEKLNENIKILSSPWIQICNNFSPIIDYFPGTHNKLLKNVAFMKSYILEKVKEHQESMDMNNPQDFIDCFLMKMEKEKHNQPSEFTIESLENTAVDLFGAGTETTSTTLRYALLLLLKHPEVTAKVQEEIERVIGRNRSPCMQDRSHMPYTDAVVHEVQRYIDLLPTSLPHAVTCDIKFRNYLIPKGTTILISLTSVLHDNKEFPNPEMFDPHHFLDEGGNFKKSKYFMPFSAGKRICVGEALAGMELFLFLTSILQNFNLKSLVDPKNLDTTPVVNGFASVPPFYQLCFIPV
Kind of data set: Cocktail CYP assay, diclofenac 4'-hydroxylation. The format is in vitro ADME. As to conditions: human liver microsomes, 5 μM diclofenac; test concentrations up to 10 μM. Here is the method: as §1, §2, §3, §4, §5, §6, §7
A general note: Microsomes from liver hold many membrane-bound enzymes, among them those of drug oxidation.

The target in another data set is T3, CYP2C19 (Homo sapiens, UniProt P33261).
T3 construct: 0.1 mg/mL protein human liver microsomes (BD Gentest); tissue BD Gentest; host or cells: human liver microsomes
T3 sequence (P33261 whole entry): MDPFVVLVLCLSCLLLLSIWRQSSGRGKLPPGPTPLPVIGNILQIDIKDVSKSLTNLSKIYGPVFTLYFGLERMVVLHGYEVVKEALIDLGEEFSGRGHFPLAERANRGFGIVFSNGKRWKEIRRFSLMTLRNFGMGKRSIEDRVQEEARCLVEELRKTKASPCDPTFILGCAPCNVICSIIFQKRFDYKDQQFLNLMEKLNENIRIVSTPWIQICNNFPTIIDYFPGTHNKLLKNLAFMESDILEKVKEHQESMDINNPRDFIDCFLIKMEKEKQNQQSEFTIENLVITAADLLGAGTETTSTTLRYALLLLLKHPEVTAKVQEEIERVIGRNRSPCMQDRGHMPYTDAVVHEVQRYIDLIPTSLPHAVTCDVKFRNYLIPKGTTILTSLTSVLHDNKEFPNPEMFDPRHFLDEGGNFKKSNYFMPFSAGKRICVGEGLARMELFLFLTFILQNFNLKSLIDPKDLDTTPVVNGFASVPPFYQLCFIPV
The experiment in a line: Cocktail CYP assay, mephenytoin 4'-hydroxylation. The format is in vitro ADME. As to conditions: human liver microsomes, 30 μM mephenytoin; test concentrations up to 10 μM. Here is the method:
as §1, §2, §3, §4, §5, §6, §7

The target of another data set is T4, CYP2D6 (Homo sapiens, UniProt P10635).
T4 construct: 0.1 mg/mL protein human liver microsomes (BD Gentest); tissue BD Gentest; host or cells: human liver microsomes
T4 sequence (P10635 whole entry): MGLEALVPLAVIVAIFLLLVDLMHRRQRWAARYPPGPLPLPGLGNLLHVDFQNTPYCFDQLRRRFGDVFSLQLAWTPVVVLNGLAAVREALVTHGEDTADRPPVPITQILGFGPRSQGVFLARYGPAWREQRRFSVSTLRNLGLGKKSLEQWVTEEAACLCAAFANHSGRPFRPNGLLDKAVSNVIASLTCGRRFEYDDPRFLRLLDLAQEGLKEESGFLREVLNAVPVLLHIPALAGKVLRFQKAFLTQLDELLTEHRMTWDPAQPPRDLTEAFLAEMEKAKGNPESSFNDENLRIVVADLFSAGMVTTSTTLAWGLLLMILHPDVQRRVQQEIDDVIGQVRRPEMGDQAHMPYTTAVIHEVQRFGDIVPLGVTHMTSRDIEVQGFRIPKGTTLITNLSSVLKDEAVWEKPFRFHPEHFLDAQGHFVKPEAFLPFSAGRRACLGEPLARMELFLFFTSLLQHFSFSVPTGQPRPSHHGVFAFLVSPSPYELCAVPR
Kind of data set: Cocktail CYP assay, dextromethorphan O-demethylation. The data set is classed as in vitro ADME. The note with it: human liver microsomes, 5 μM dextromethorphan; test concentrations up to 10 μM. Here is the method:
as §1, §2, §3, §4, §5, §6, §7

For another data set, the target named is T5, human CYP11B1 (Homo sapiens, UniProt P15538).
T5 construct: expressed in transfected cells
T5 sequence (P15538 25-503): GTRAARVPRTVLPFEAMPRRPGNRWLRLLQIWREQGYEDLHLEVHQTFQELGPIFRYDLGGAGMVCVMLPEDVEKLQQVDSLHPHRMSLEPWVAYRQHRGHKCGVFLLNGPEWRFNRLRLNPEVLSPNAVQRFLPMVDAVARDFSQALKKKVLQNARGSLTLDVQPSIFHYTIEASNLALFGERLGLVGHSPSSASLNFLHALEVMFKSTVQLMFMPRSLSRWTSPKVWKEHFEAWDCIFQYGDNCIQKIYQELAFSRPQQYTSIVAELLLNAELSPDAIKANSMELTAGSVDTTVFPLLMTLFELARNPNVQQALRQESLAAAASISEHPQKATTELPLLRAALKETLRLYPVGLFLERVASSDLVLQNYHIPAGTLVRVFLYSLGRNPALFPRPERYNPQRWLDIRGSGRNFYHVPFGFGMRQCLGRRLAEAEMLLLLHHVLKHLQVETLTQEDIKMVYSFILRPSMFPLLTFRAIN
Kind of data set: IC50 vs CYP11B1 by cortisol synthesis in V79 cells. The data set is classed as cell-based. As to conditions: V79 cells expressing human CYP11B1, 1500 nM RSS, cortisol HTRF; test concentrations 0.5-10000 nM. Here is the method:
Determination of IC50 vs CYP11B1/CYP11B2 by Measurement of Cortisol/Aldosterone Synthesis
This assay was performed in a standard 384-well plate design using cultured V79 cells stably expressing human CYP11B1 or human CYP11B2. Test compounds at 10 concentrations (for example, 10000, 3333.3, 1111.1, 370.4, 123.5, 41.2, 13.7, 4.6, 1.5 and 0.5 nM) were added in 384-well plate after the cell-seeding procedure. The incubation substrate contains 1500 nM RSS for CYP11B1 assay/750 nM DOC for CYP11B2 assay. The
Cortisol/Aldosterone production of cell culture supernatant was determined by Cortisol/Aldosterone HTRF kit after for about 15 hours incubation at RT (protect from light). IC50 values were calculated from the percent inhibition observed for each test compound at 10 concentrations.
The assay plate was read using Envision (Perkin Elmer, Waltham, Mass.) at 665 nm and 590 nm (using Filter Barcode of 217#, 205#; Mirror Barcode of 446#).
Data are analyzed using Assay Data Analyzer. All ratio data (665 nm/590 nm) are back calculated according to the standard curve, resulting in Cortisol/Aldosterone concentrations. IC50 values are reported as the Inflection Point (IP) of a four parameter fit of the titration data.
as §5
% Activity=100×{1−(Sample_back calculated Cortisol/Aldosterone concentration−LC_back calculated Cortisol/Aldosterone concentration)/(HC_back calculated Cortisol/Aldosterone concentration−LC_back calculated Cortisol/Aldosterone concentration)}
(In TR-FRET formats the signal depends on donor and acceptor labels being close together.)

A further data set addresses CYP3A4 (Homo sapiens, UniProt P08684). Kind of data set: IC50 vs CYP3A by inhibition of lopinavir metabolism in human liver microsomes. The format is biochemical. As to conditions: pH 7.4, human liver microsomes, 1.5 μM lopinavir, 8 min at 37° C., test concentrations 0.098-100 nM, read-out: 3A4(LPV). Here is the method:
Determination of IC50 vs CYP3A by Measurement of Inhibition of Lopinavir Metabolism
This assay was performed in a standard 96-well plate design. IC50 values were calculated from the percent inhibition observed for each test compound at 6 concentrations (for example, 0.098, 0.391, 1.56, 6.25, 25 and 100 nM). The incubation substrate mix contains 1.5 μM lopinavir, 0.01 mg/mL protein human liver microsomes (BD Gentest), 1 mM NAPDH, 3.3 mM MgCl2 and 100 mM potassium phosphate buffer (pH 7.4). The production of the sum of three hydroxylated metabolites (M2: 6-hydroxy lopinavir, M3: 4-hydroxy lopinavir, M4: 4-hydroxy lopinavir (epimer of M3), Kumar et al., 1999) was determined after incubation for 8 min at 37° C. Quantitation of the metabolite peak area ratio against an internal standard (tolbutamide) was determined by LC/MS/MS analysis following acetonitrile treatment of the incubations.
Samples were analyzed in the MRM mode with a SCIEX API-4000 mass spectrometer (Applied Biosystems, Foster City, Calif.), with a Shimadzu LC-20 AD pump (Shimadzu corporation, Kyoto, JP) and a CTC PAL autosampler (Agilent Technologies, Switzerland). A Phenomenex, Luna, 5 μm, 100 A, 2.00×30 mm HPLC column was used for the separation. The mobile phases were: (A) 0.1% formic acid in water and (B) 0.1% formic acid in acetonitrile. The binary gradient was as follows.
The peak area ratio of the analyte to the internal standard was used to quantify the metabolite. The values of peak area ratios in the presence of test compound were compared to those of maximum or minimum controls and were expressed as % inhibition by interpolating between the maximum and minimum peak area ratios. Incubations with no inhibitor were defined as the maxima and with 5 μM ketoconazole were defined as the minima
as §5, §6, §7

The record followed here is US20140005103A1, “SULFONAMIDE DERIVATIVES AND METHODS OF USE THEREOF FOR IMPROVING THE PHARMACOKINETICS OF A DRUG” (Merck, Sharp & Dohme Corp., priority 2012, published 2014).

Chain of CYP3A4 (P08684 2-503): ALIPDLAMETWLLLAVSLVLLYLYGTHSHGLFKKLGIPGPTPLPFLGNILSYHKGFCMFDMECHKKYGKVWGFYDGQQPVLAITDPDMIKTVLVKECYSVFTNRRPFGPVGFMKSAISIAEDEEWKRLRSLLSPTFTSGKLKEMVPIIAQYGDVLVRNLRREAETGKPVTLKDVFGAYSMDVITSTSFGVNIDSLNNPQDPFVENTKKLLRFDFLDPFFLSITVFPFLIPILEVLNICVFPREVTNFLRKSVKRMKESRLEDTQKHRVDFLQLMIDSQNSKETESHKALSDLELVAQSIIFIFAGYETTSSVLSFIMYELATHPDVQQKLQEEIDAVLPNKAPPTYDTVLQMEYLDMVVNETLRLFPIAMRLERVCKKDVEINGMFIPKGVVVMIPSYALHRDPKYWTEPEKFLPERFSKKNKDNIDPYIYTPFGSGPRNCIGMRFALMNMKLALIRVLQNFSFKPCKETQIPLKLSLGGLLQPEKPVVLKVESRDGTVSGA

In the case of `C[C@H](c1ccc(F)cc1)n1cncc1C1CC12CCN(S(=O)(=O)c1cnc(N3CCN(C)CC3)s1)CC2` (single isomer, unassigned) [Compound 43b], the IC50 at CYP1A2 was over 10 µM; against CYP2C9, over 10 µM; against CYP2C19, 9.2 µM; against CYP2D6, 3.6 µM.
In the case of `C[C@H](c1ccc(F)cc1)n1cncc1CN1CCN(S(=O)(=O)c2cnc(N3CCC(S(C)(=O)=O)C3)s2)CC1` (stereo partly drawn) [Compound 7], the IC50 against CYP1A2 is over 10 µM; on CYP2C9, 3.39 µM; at CYP2C19, over 10 µM; on CYP2D6, over 10 µM; against human CYP11B1, 4.09 µM.
For `COC(c1cncn1[C@H](C)c1ccc(F)cc1)C1CCN(S(=O)(=O)c2cnc(Nc3ccc(C(F)(F)F)cn3)s2)CC1` (single isomer, unassigned) [Compound 45a], the IC50 at 8 min on CYP3A4 was under 0.00098 µM. The IC50 at CYP1A2 was over 10 µM; at CYP2C9 it was 0.336 µM; against CYP2C19, 1.13 µM; at CYP2D6, 5.68 µM.
As to `COC(c1cncn1[C@H](C)c1ccc(F)cc1)C1CCN(S(=O)(=O)c2cnc(Nc3ccc(C(F)(F)F)cn3)s2)CC1` (single isomer, unassigned) [Compound 45b], the IC50 was over 10 µM against CYP1A2, 1.45 µM against CYP2C9, 4.49 µM on CYP2C19 and 7.85 µM against CYP2D6.
In the case of `C[C@H](c1ccc(F)cc1)n1cncc1C1CN(C)CC2CN(S(=O)(=O)c3cnc(Nc4ccccn4)s3)CCN21` (stereo partly drawn) [Compound 41], the IC50 at 8 min on CYP3A4 stood at 0.0021 µM. The IC50 at CYP1A2 was over 10 µM; against CYP2C9, 2.26 µM; on CYP2C19 it was 4.95 µM; at CYP2D6, 2.3 µM.
In the case of `C[C@H](c1ccc(F)cc1)n1cncc1C1CC12CCN(S(=O)(=O)c1cnc(N3CCN(C)CC3)s1)CC2` (single isomer, unassigned) [Compound 43a], the IC50 against CYP1A2 is over 10 µM; against CYP2C9 it was over 10 µM; against CYP2C19, over 10 µM; on CYP2D6, 2.9 µM.
With `C[C@H](c1ccc(F)cc1)n1cncc1CC1(CO)CCN(S(=O)(=O)c2cnc(N3CCN(C)CC3)s2)CC1` [Compound 47], the IC50 at 8 min on CYP3A4 came out at 0.013 µM. The IC50 on CYP1A2 is over 10 µM; against CYP2C9 it was over 10 µM; on CYP2C19, over 10 µM; against CYP2D6, 5.84 µM.
Take `C[C@H](c1ccc(F)cc1)n1cncc1CC1CCN(S(=O)(=O)c2cnc(N3CCN(C)CC3)s2)CC1` [Compound 44]: the IC50 at 8 min on CYP3A4 was 0.0011 µM. For the same compound, the IC50 at CYP1A2 was over 10 µM; against CYP2C9, 3.57 µM; against CYP2C19 it was 8.39 µM; against CYP2D6 it was 2.41 µM.
As for `C[C@H](c1ccc(F)cc1)n1cncc1CN1CCN(S(=O)(=O)c2cnc(N3CC[C@@H]4OCCN[C@H]4C3)s2)CC1` [Compound 14], the IC50 was over 10 µM at CYP1A2, 9.76 µM on CYP2C9, over 10 µM on CYP2C19 and 1.05 µM against human CYP11B1.
`C[C@H](c1ccc(F)cc1)n1cncc1CN1CCN(S(=O)(=O)c2cnc(N3CC[C@@H]4OCCN[C@H]4C3)s2)CC1` [Compound 13]: on CYP3A4, the IC50 at 8 min amounted to 0.0014 µM. For the same compound, the IC50 against CYP1A2 was over 10 µM; on CYP2C9, 7.41 µM; on CYP2C19, over 10 µM; against human CYP11B1 it was 1.56 µM.
For the compound `C[C@H](c1ccc(F)cc1)n1cncc1CC1(C#N)CCN(S(=O)(=O)c2cnc(N3CCN(C)CC3)s2)CC1` [Compound 48], the IC50 at 8 min at CYP3A4 worked out at 0.0094 µM. In addition, the IC50 was over 10 µM on CYP1A2, over 10 µM on CYP2C9, 8.06 µM at CYP2C19 and 2.85 µM on CYP2D6.
